Biological target: T1, ΔF508-CFTR (Homo sapiens, UniProt P13569, DEL508-508)
T1 construct: expressed in transfected cells
Test: Membrane potential optical assay (FRET voltage-sensor dyes, VIPR), identification of potentiator compounds
Assay type: cell-based
Settings: Table 3; assay not given
How it was run: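 NIH3T3 mouse fibroblasts stably expressing ΔF508-CFTR, cultured 24 h at 27 °C, were loaded with FRET voltage dyes CC2-DMPE and DiSBAC2(3). Double-addition format: first addition of Cl⁻-free (gluconate) medium with or without compound; membrane-potential change read as fluorescence on VIPR II.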

T1 sequence (P13569 with tags, fused parts or gaps DEL508-508): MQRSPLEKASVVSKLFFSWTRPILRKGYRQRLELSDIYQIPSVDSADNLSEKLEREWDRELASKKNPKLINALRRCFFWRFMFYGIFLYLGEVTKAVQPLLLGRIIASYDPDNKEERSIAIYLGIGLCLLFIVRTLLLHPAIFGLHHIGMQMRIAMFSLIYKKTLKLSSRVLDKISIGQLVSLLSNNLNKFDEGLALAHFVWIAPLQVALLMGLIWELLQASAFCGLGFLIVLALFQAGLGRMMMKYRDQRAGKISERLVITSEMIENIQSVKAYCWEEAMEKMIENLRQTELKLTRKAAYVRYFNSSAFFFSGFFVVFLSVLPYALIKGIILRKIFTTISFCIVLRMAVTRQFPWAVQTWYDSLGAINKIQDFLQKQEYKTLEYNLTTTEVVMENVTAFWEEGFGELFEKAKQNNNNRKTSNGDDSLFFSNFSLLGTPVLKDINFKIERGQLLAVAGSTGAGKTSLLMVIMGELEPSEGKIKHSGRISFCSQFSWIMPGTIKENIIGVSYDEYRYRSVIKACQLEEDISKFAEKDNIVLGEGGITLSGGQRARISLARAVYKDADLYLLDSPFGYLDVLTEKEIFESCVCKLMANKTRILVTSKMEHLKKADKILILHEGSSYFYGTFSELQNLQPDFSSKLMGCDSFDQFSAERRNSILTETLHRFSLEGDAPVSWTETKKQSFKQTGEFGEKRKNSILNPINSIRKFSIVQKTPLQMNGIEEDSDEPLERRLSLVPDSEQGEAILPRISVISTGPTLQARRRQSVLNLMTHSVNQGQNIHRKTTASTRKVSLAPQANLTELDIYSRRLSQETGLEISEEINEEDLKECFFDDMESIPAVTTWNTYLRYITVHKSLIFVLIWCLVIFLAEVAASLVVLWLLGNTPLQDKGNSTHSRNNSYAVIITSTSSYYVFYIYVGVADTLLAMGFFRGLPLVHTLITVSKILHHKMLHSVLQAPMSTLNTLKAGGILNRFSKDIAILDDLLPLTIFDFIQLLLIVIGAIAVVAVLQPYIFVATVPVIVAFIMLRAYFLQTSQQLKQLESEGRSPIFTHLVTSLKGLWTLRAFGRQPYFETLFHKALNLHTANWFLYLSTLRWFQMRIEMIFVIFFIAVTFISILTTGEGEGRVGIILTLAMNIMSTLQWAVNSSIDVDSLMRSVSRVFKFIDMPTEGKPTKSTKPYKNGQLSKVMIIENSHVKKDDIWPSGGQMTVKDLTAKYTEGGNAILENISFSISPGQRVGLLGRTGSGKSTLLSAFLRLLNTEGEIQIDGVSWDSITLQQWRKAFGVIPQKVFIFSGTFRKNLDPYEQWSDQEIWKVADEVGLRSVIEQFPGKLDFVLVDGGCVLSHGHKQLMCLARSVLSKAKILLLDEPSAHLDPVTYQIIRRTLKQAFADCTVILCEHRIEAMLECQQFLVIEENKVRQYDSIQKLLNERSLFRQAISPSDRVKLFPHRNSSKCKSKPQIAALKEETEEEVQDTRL

Q: With `CSc1ccccc1-c1ccccc1NC(=O)c1c[nH]c2ccccc2c1=O` [Compound 279, N-[2-(2-methylsulfanylphenyl)phenyl]-4-oxo-1H-quinoline-3-carboxamide] as the compound, how does the EC50 read?
A: The EC50 was < 10 µM.

Q: Which EC50 does the source give for `O=C(Nc1ccc(C2CCCCC2)cc1)c1c[nH]c2ccccc2c1=O` [Compound 140, N-(4-cyclohexylphenyl)-4-oxo-1H-quinoline-3-carboxamide] here?
A: Its EC50 is < 10 µM.

Q: How did the EC50 turn out when `COc1ccccc1-c1cc2cc[nH]c2cc1NC(=O)c1c[nH]c2ccccc2c1=O` [Compound 237, N-[5-(2-methoxyphenyl)-1H-indol-6-yl]-4-oxo-1H-quinoline-3-carboxamide] was run?
A: Its EC50 is < 10 µM.

Same assay, conditions: Table 3; assay not given; read-out: % Activity (% Efficacy, relative efficacy)

Q: How did the Emax turn out when `CC(C)(C)c1c[nH]c2cc(NC(=O)c3c[nH]c4ccc(F)cc4c3=O)ccc12` [Compound 554, 6-fluoro-4-oxo-N-(3-tert-butyl-1H-indol-6-yl)-1H-quinoline-3-carboxamide] was run?
A: The Emax was 25 to 100%.

Q: Which Emax does the source give for `O=C(Nc1cccnc1Oc1ccccc1F)c1c[nH]c2ccccc2c1=O` [Compound 435, N-[2-(2-fluorophenoxy)-3-pyridyl]-4-oxo-1H-quinoline-3-carboxamide] here?
A: Its Emax is 25 to 100%.

Q: With `O=C(Nc1cc2[nH]ccc2cc1F)c1c[nH]c2ccccc2c1=O` [Compound 77, N-(5-fluoro-1H-indol-6-yl)-4-oxo-1H-quinoline-3-carboxamide] as the compound, how does the Emax read?
A: Its Emax is 25 to 100%.

Q: How did the Emax turn out when `CSc1ccccc1NC(=O)c1c[nH]c2ccccc2c1=O` [Compound 229, N-(2-methylsulfanylphenyl)-4-oxo-1H-quinoline-3-carboxamide] was run?
A: The Emax was 25 to 100%.

Q: How did the Emax turn out when `O=C(Nc1ccc(C(F)(F)F)c(O)c1)c1c[nH]c2ccc(F)cc2c1=O` [Compound 650, 6-fluoro-N-[3-hydroxy-4-(trifluoromethyl)phenyl]-4-oxo-1H-quinoline-3-carboxamide] was run?
A: The Emax was 25 to 100%.

Q: With `CSc1ccccc1-c1ccccc1NC(=O)c1c[nH]c2ccccc2c1=O` [Compound 279, N-[2-(2-methylsulfanylphenyl)phenyl]-4-oxo-1H-quinoline-3-carboxamide] as the compound, how does the Emax read?
A: Its Emax is 25 to 100%.

Q: With `Cc1cccc2[nH]cc(C(=O)Nc3ccc(N4CC[C@H](F)C4)cc3C(F)(F)F)c(=O)c12` [Compound 626, (S)-N-(4-(3-fluoropyrrolidin-1-yl)-2-(trifluoromethyl)phenyl)-5-methyl-4-oxo-1,4-dihydroquinoline-3-carboxamide] as the compound, how does the Emax read?
A: The Emax was 25 to 100%.

Q: Which Emax does the source give for `CC1CCN(c2ccccc2NC(=O)c2c[nH]c3ccccc3c2=O)CC1` [Compound 372, N-[2-(4-methyl-1-piperidyl)phenyl]-4-oxo-1H-quinoline-3-carboxamide] here?
A: The Emax was 25 to 100%.

Q: How did the Emax turn out when `CCOCCc1c[nH]c2cc(NC(=O)c3c[nH]c4ccccc4c3=O)ccc12` [Compound 423, N-[3-(2-ethoxyethyl)-1H-indol-6-yl]-4-oxo-1H-quinoline-3-carboxamide] was run?
A: The Emax was 25 to 100%.

Q: For `CC(C)(C)c1cc(F)c(NC(=O)c2c[nH]c3c(C(F)(F)F)cccc3c2=O)cc1O` [Compound 638, N-(2-fluoro-5-hydroxy-4-tert-butyl-phenyl)-4-oxo-8-(trifluoromethyl)-1H-quinoline-3-carboxamide], which Emax is on record?
A: The Emax was < 25%.

Q: With `CC(C)(C)c1ccc(NC(=O)c2c[nH]c3ccc(F)cc3c2=O)cc1O` [Compound 490, 6-fluoro-N-(3-hydroxy-4-tert-butyl-phenyl)-4-oxo-1H-quinoline-3-carboxamide] as the compound, how does the Emax read?
A: The Emax was 25 to 100%.

Q: `O=C(Nc1cc(C(=O)O)c2cc[nH]c2c1)c1c[nH]c2ccccc2c1=O` [Compound 711, 6-[(4-oxo-1H-quinolin-3-yl)carbonylamino]-1H-indole-4-carboxylic acid] was tested. Which Emax did it give?
A: The Emax was 25 to 100%.

Q: With `O=C(Nc1ccc(C2CCCCC2)cc1)c1c[nH]c2ccccc2c1=O` [Compound 140, N-(4-cyclohexylphenyl)-4-oxo-1H-quinoline-3-carboxamide] as the compound, how does the Emax read?
A: The Emax was 25 to 100%.

Q: How did the Emax turn out when `Cc1cc(OC(F)(F)F)ccc1NC(=O)c1c[nH]c2ccccc2c1=O` [Compound 538, N-[2-methyl-4-(trifluoromethoxy)phenyl]-4-oxo-1H-quinoline-3-carboxamide] was run?
A: The Emax was 25 to 100%.

Q: How did the Emax turn out when `CC(C)(C)OC(=O)NC1CCCc2ccc(NC(=O)c3c[nH]c4ccccc4c3=O)cc21` (centres unmarked) [Compound 273, [7-[(4-oxo-1H-quinolin-3-yl)carbonylamino]tetralin-1-yl]aminoformic acid tert-butyl ester] was run?
A: The Emax was > 100%.

Q: Which Emax does the source give for `COc1ccccc1-c1cc2cc[nH]c2cc1NC(=O)c1c[nH]c2ccccc2c1=O` [Compound 237, N-[5-(2-methoxyphenyl)-1H-indol-6-yl]-4-oxo-1H-quinoline-3-carboxamide] here?
A: The Emax was 25 to 100%.

Q: Which Emax does the source give for `COc1cc(NC(=O)c2c[nH]c3ccccc3c2=O)cc2ccccc12` [Compound 717, N-(4-methoxy-2-naphthyl)-4-oxo-1H-quinoline-3-carboxamide] here?
A: Its Emax is 25 to 100%.

Q: `O=C(Nc1ccc2cc(C(F)(F)F)[nH]c2c1)c1c[nH]c2ccccc2c1=O` [Compound 537, 4-oxo-N-[2-(trifluoromethyl)-1H-indol-6-yl]-1H-quinoline-3-carboxamide] was tested. Which Emax did it give?
A: Its Emax is 25 to 100%.

Q: With `O=C(Nc1ccc2c(C3CCCC3)c[nH]c2c1)c1c[nH]c2ccccc2c1=O` [Compound 186, N-(3-cyclopentyl-1H-indol-6-yl)-4-oxo-1H-quinoline-3-carboxamide] as the compound, how does the Emax read?
A: Its Emax is 25 to 100%.

Q: Which Emax does the source give for `Cc1cccc(Oc2ncccc2NC(=O)c2c[nH]c3ccccc3c2=O)c1C` [Compound 206, N-[2-(2,3-dimethylphenoxy)-3-pyridyl]-4-oxo-1H-quinoline-3-carboxamide] here?
A: The Emax was 25 to 100%.

Q: How did the Emax turn out when `Cn1cnnc1-c1ccc(NC(=O)c2c[nH]c3ccccc3c2=O)cc1` [Compound 301, N-[4-(4-methyl-4H-1,2,4-triazol-3-yl)phenyl]-4-oxo-1H-quinoline-3-carboxamide] was run?
A: The Emax was < 25%.

Q: Which Emax does the source give for `CCOC(=O)NCC(C)(C)c1ccc(NC(=O)c2c[nH]c3ccccc3c2=O)cc1` [Compound 119, [2-methyl-2-[4-[(4-oxo-1H-quinolin-3-yl)carbonylamino]phenyl]-propyl]aminoformic acid ethyl ester] here?
A: The Emax was 25 to 100%.

Q: Which Emax does the source give for `Cc1cccc(C(C)C)c1NC(=O)c1c[nH]c2ccccc2c1=O` [Compound 430, N-(2-isopropyl-6-methyl-phenyl)-4-oxo-1H-quinoline-3-carboxamide] here?
A: Its Emax is 25 to 100%.

Q: For `O=C(Nc1ccc2ccccc2c1)c1c[nH]c2ccccc2c1=O` [Compound 481, N-(2-naphthyl)-4-oxo-1H-quinoline-3-carboxamide], which Emax is on record?
A: Its Emax is 25 to 100%.

Q: How did the Emax turn out when `CC(C)OC(=O)c1cccc(-c2ccccc2NC(=O)c2c[nH]c3ccccc3c2=O)c1` [Compound 71, 3-[2-[(4-oxo-1H-quinolin-3-yl)carbonylamino]phenyl]benzoic acid isopropyl ester] was run?
A: Its Emax is 25 to 100%.

Q: How did the Emax turn out when `O=C(Nc1cc(C(F)(F)F)cc(C(F)(F)F)c1)c1c[nH]c2ccccc2c1=O` [Compound 154, N-[3,5-bis(trifluoromethyl)phenyl]-4-oxo-1H-quinoline-3-carboxamide] was run?
A: The Emax was < 25%.

Q: How did the Emax turn out when `CC(C)(C)c1cc(C(C)(C)C)c(NC(=O)c2c[nH]c3ccc(C#N)cc3c2=O)cc1O` [Compound 525, 6-cyano-N-(5-hydroxy-2,4-ditert-butyl-phenyl)-4-oxo-1H-quinoline-3-carboxamide] was run?
A: The Emax was < 25%.

Q: `O=C(Nc1cnc2ccccc2c1)c1c[nH]c2ccccc2c1=O` [Compound 75, 4-oxo-N-(3-quinolyl)-1H-quinoline-3-carboxamide] was tested. Which Emax did it give?
A: The Emax was < 25%.

Q: For `O=C(Nc1ccccc1-c1ccc(F)cc1F)c1c[nH]c2ccccc2c1=O` [Compound 63, N-[2-(2,4-difluorophenyl)phenyl]-4-oxo-1H-quinoline-3-carboxamide], which Emax is on record?
A: The Emax was 25 to 100%.

Q: For `CCC(C)c1ccc(NC(=O)c2c[nH]c3ccccc3c2=O)cc1` (centres unmarked) [Compound 310, 4-oxo-N-(4-sec-butylphenyl)-1H-quinoline-3-carboxamide], which Emax is on record?
A: The Emax was 25 to 100%.

Q: For `O=C(Nc1ccccc1-n1cccc1)c1c[nH]c2ccccc2c1=O` [Compound 293, 4-oxo-N-[2-(1H-pyrrol-1-yl)phenyl]-1H-quinoline-3-carboxamide], which Emax is on record?
A: Its Emax is > 100%.

Q: Which Emax does the source give for `COc1cc2c(=O)c(C(=O)Nc3cc4[nH]ccc4cc3C(C)(C)C)c[nH]c2cc1F` [Compound 611, 7-fluoro-6-methoxy-4-oxo-N-(5-tert-butyl-1H-indol-6-yl)-1H-quinoline-3-carboxamide] here?
A: Its Emax is > 100%.

Reference: patent publication US8802700B2 (Vertex Pharmaceuticals Incorporated, priority 2010, dated 2014)
